As usually defined, the IC50 is the point on the concentration scale where inhibition reaches its midpoint.

≈ marks a conversion by molar mass, not a printed value. Like-named read-outs stand apart in the source and are kept apart here.

Test [1] deals with A-549 (carcinoma of the lung). Briefly: Growth inhibition in cell culture, A-549. The class given is cell-based, human. Here is the method:
(§1) The epothilones according to the invention were tested with cell cultures (Table 2) and for promotion of polymerization (Table 3).

The next test has as its system U-937 (lymphoma). The test can be described thus: Growth inhibition in cell culture, U-937. It counts as cell-based, human. Here is the method:
as §1

For test [2], the system named is KB-3.1 (carcinoma of the cervix). Briefly: Growth inhibition in cell culture, KB-3.1. The class given is cell-based, human. As to the method: as §1
Another test deals with HL-60 (leukaemia). Briefly: Growth inhibition in cell culture, HL-60. The class given is cell-based, human. Here is the method: as §1
Another test has as its system Mouse fibroblasts L 929. The test can be described thus: Growth inhibition in cell culture, mouse fibroblasts L929. The class given is cell-based. Here is the method:
as §1

The target in test [3] is T1, purified tubulin from pigs' brain (Sus scrofa, UniProt P02554).
T1 construct: purified tubulin from pigs' brain; from tissue; host or cells: pig brain
The class given is biochemical, pig. To be noted: 0.9 mg of tubulin/ml, 1 μM sample concentration; for Time up to the half-maximal polymerization, Agent [%] (relative activity in % of the control): control = 100, lowest values indicate the best activity; for Time up to the half-maximal polymerization of the control, Agent [s]: average of experiments w-z, control 190 s; for Time up to the half-maximal polymerization of the control, measurement w: independent experiment w; for Time up to the half-maximal polymerization of the control, measurement x: independent experiment x; for Time up to the half-maximal polymerization of the control, measurement y: independent experiment y; for Time up to the half-maximal polymerization of the control, measurement z: independent experiment z. As to the method: as §1
The polymerization test is an in vitro test using purified tubulin from pigs' brain. Evaluation is carried out photometrically.

A further test relates to K-562 (leukaemia). The test can be described thus: Growth inhibition in cell culture, K-562. It counts as cell-based, human. Here is the method:
as §1

Test [4] has as its system KB-VI (carcinoma of the cervix multires). Briefly: Growth inhibition in cell culture, KB-VI. The class given is cell-based, human. As to the method:
as §1

For test [5], the system named is A-498 (carcinoma of the kidney). Briefly: Growth inhibition in cell culture, A-498. The class given is cell-based, human. As to the method: as §1
[6] abbreviates: KB-3.1 (carcinoma of the cervix).
The mark [7] stands for this setting: KB-VI (carcinoma of the cervix multires).
Setting [8] is: A-498 (carcinoma of the kidney).

T1 sequence (P02554 whole entry): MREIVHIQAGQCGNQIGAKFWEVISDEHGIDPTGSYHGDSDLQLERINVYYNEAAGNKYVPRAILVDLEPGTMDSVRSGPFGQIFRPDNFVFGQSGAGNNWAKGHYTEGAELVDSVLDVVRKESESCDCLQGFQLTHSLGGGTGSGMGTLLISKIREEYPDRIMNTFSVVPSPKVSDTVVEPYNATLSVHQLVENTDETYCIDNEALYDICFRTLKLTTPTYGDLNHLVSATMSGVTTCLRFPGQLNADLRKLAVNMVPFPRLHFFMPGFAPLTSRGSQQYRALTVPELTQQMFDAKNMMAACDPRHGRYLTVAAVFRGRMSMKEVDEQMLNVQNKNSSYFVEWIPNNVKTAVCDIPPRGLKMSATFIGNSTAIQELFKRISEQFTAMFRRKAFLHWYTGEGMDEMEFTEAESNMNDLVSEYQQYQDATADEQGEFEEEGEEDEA
T1 sequence (P02550 whole entry partner): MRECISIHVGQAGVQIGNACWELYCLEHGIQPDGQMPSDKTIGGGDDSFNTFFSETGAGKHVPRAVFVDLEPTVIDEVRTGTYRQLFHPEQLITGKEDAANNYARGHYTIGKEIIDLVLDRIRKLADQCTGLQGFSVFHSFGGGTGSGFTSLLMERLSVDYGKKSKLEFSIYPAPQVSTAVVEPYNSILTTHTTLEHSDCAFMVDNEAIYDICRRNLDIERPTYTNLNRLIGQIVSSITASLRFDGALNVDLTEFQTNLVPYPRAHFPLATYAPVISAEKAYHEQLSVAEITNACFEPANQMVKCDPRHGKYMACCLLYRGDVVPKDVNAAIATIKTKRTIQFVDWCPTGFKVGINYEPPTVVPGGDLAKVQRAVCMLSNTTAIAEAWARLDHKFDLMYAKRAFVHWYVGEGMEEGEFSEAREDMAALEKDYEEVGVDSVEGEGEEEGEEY

Regarding `C/C(=C\c1csc(C)n1)[C@@H]1C[C@@H]2O[C@@H]2CCC[C@H](C)[C@H](O)[C@@H](C)C(=O)C(C)(C)[C@@H](O)CC(=O)O1` [Epothilone A, epothilone A, reference compound], the “IC-50” value in [1] (A-549 (carcinoma of the lung)) came out at 0.7 ng/mL; in the test on U-937 (lymphoma) (U-937 (lymphoma)), 0.2 ng/mL; in test [2] (setting [6]), 1 ng/mL; with HL-60 (leukaemia) (HL-60 (leukaemia)), 0.2 ng/mL; in the test on Mouse fibroblasts L 929 (Mouse fibroblasts L 929) it was 4 ng/mL; in the test on K-562 (leukaemia) (K-562 (leukaemia)) it was 0.3 ng/mL. Also, the “IC-50” value in test [4] (setting [7]) turned out to be 0.3 ng/mL. Further, the “IC50” value is 1 ng/mL (≈ 2.03 nM) in [2] (HeLa KB-3.1 (human), concentration which reduces the growth by 50%) and 4 ng/mL (≈ 8.1 nM) in the test with Mouse fibroblasts L 929 (Mouse fibroblasts, L929, concentration which reduces the growth by 50%). The “Time up to the half-maximal polymerization, Agent [%] (relative activity in % of the control)” value in [3] came out at 39%. The “Time up to the half-maximal polymerization of the control, Agent [s]” value (from here on “Time up … [s]”) in test [3] came out at 74 s. Moreover, the “Time up to the half-maximal polymerization of the control, measurement w” value (“Time up … measurement w” below) in test [3] stood at 95 s. The “Time up to the half-maximal polymerization of the control, measurement x” value (“Time up … measurement x” for short) in test [3] came to 60 s. Further, the “Time up to the half-maximal polymerization of the control, measurement y” value (“Time up … measurement y” below) in test [3] stood at 70 s. In addition, the “Time up to the half-maximal polymerization of the control, measurement z” value (shortened to “Time up … measurement z”) in test [3] worked out at 70 s.

Take `C/C1=C/C[C@@H](/C(C)=C/c2csc(C)n2)OC(=O)C[C@H](O)C(C)(C)C(=O)[C@H](C)[C@@H](O)[C@@H](C)CCC1` [Epothilone D]: the “IC-50” value in test [1] (A-549 (carcinoma of the lung)) turned out to be 10 ng/mL; in test [5] (setting [8]), 20 ng/mL; in the test on U-937 (lymphoma) (U-937 (lymphoma)) it was 3 ng/mL; in test [2] (setting [6]) it was 12 ng/mL; in the test on HL-60 (leukaemia) (HL-60 (leukaemia)), 3 ng/mL; in the test with Mouse fibroblasts L 929 (Mouse fibroblasts L 929), 20 ng/mL. Further, the “IC-50” value in the test on K-562 (leukaemia) (K-562 (leukaemia)) came out at 10 ng/mL; in test [4] (setting [7]), 3 ng/mL. Besides, the “Time up to the half-maximal polymerization, Agent [%] (relative activity in % of the control)” value in test [3] came out at 56%. Also, the “Time up … [s]” value in test [3] came out at 106 s. Further, the “Time up … measurement w” value in [3] worked out at 125 s. Also, the “Time up … measurement x” value in test [3] is on record as 73 s. For the same compound, in [3], the “Time up … measurement y” value came out at 120 s.

Turning to `C/C(=C\c1csc(CO)n1)[C@@H]1C[C@@H]2O[C@@H]2CCC[C@H](C)[C@H](O)[C@@H](C)C(=O)C(C)(C)[C@@H](O)CC(=O)O1` [Epothilone E], the “IC-50” value stood at 3 ng/mL in [1]; 20 ng/mL in test [5]; 1 ng/mL in the test with U-937 (lymphoma); 5 ng/mL in [2]; 1 ng/mL in the test with HL-60 (leukaemia); 20 ng/mL in the test on Mouse fibroblasts L 929. For the same compound, the “IC-50” value in the test with K-562 (leukaemia) turned out to be 2 ng/mL; in [4], 5 ng/mL. Further, the “IC50” value in test [2] worked out at 5 ng/mL (≈ 9.81 nM); with Mouse fibroblasts L 929, 20 ng/mL (≈ 39.2 nM).

As for `C/C(=C\c1csc(CO)n1)[C@@H]1C[C@@H]2O[C@]2(C)CCC[C@H](C)[C@H](O)[C@@H](C)C(=O)C(C)(C)[C@@H](O)CC(=O)O1` [Epothilone F], the “IC-50” value in test [1] is 0.1 ng/mL; in test [5], 3 ng/mL; with U-937 (lymphoma), 0.2 ng/mL; in test [2], 0.5 ng/mL; in the test with HL-60 (leukaemia), 0.3 ng/mL; in the test with Mouse fibroblasts L 929 it was 1.5 ng/mL. Moreover, the “IC-50” value in the test on K-562 (leukaemia) was found to be 0.5 ng/mL; in test [4], 0.6 ng/mL.

Turning to `C/C(=C\c1csc(C)n1)[C@@H]1C[C@@H]2O[C@]2(C)CCC[C@H](C)[C@H](O)[C@@H](C)C(=O)C(C)(C)[C@@H](O)CC(=O)O1` [Epothilone B, epothilone B, reference compound], the “IC-50” value in test [1] (A-549 (carcinoma of the lung)) is 0.1 ng/mL; in test [5] (setting [8]) it was 1.5 ng/mL; with U-937 (lymphoma) (U-937 (lymphoma)), 0.2 ng/mL; in test [2] (setting [6]), 0.6 ng/mL; with HL-60 (leukaemia) (HL-60 (leukaemia)), 0.2 ng/mL; with Mouse fibroblasts L 929 (Mouse fibroblasts L 929) it was 1 ng/mL. For the same compound, the “IC-50” value (in the test on K-562 (leukaemia) (K-562 (leukaemia)); in [4] (setting [7])) was 0.3 ng/mL each time. Besides, the “Time up to the half-maximal polymerization, Agent [%] (relative activity in % of the control)” value in test [3] amounted to 14%. Besides, in test [3], the “Time up … [s]” value is recorded as 26 s. In addition, the “Time up … measurement x” value in [3] came out at 23 s. The “Time up … measurement y” value in [3] is 25 s. In test [3], the “Time up … measurement z” value came to 30 s.

On to `C/C(=C\c1csc(C)n1)[C@@H]1C/C=C\CCC[C@H](C)[C@H](O)[C@@H](C)C(=O)C(C)(C)[C@@H](O)CC(=O)O1` [Epothilone C], for which the “IC-50” value in test [1] (A-549 (carcinoma of the lung)) is 30 ng/mL; in test [5] (setting [8]) it was 150 ng/mL; in the test on U-937 (lymphoma) (U-937 (lymphoma)), 10 ng/mL; in test [2] (setting [6]) it was 20 ng/mL; in the test with HL-60 (leukaemia) (HL-60 (leukaemia)), 10 ng/mL; in the test on Mouse fibroblasts L 929 (Mouse fibroblasts L 929) it was 100 ng/mL. The entries for the “IC-50” value (in the test with K-562 (leukaemia) (K-562 (leukaemia)); in test [4] (setting [7])) were 20 ng/mL and 15 ng/mL, respectively. In addition, the “Time up to the half-maximal polymerization, Agent [%] (relative activity in % of the control)” value in test [3] stood at 49%. Moreover, the “Time up … [s]” value in [3] amounted to 94 s. Also, the “Time up … measurement w” value in test [3] is recorded as 125 s. Further, in [3], the “Time up … measurement x” value is reported as 76 s. In test [3], the “Time up … measurement y” value is recorded as 95 s. Besides, the “Time up … measurement z” value in [3] turned out to be 80 s.

The record behind these values is US7759375B2, “Epothilones C, D, E, and F, preparation and compositions” (priority 1996, dated 2010).
